This note sets out measurements from ChEMBL document CHEMBL3608278 (J Med Chem, 2015).

For orientation: half-life means how long it takes for the measured level to halve. Higher therefore signals slow decline. One may read the IC50 as the point on the concentration scale where inhibition reaches its midpoint. A lower IC50 goes with higher potency.

Structures are written as SMILES. Bridge positions count the residues as written; N and C are the ends. Square brackets hold non-standard residues; d marks the D form. Peptide text beside a SMILES is read from it. 1Nal = N[C@@H](Cc1cccc2ccccc12)C(=O)O

A short description of data set [1]: Half life in rat. Type of data set: ADME, organism-based. The conditions noted are these: in vivo.
For data set [2], the target named is T1, Potassium voltage-gated channel subfamily A member 3 (Homo sapiens, UniProt P22001). Type of data set: cell-based, CHO-K1.
T1 sequence (P22001 whole entry): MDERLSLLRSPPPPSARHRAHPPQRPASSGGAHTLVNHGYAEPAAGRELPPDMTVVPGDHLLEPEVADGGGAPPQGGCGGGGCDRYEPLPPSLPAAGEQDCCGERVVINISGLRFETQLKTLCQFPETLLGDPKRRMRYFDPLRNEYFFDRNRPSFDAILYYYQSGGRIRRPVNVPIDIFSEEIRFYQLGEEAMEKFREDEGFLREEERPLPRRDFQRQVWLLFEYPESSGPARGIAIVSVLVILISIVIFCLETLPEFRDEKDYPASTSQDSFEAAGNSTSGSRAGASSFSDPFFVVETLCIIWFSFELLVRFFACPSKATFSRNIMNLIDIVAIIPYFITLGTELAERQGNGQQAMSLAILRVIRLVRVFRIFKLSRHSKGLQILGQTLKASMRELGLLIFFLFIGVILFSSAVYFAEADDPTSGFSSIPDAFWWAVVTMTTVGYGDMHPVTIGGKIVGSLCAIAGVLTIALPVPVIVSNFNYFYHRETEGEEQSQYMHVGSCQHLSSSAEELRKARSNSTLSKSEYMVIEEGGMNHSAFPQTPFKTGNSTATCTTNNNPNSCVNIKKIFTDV
Data set [3] deals with T1, Potassium voltage-gated channel subfamily A member 3. Briefly: cell-based. More on the design: species or system Blood.
The target is the same in data set [4]. More on the design: species or system Blood.

In turn, `CC[C@H](C)[C@@H]1NC(=O)[C@@H](NC(=O)[C@H](CO)NC(=O)[C@@H](N)CCCNC(=N)N)CSSC[C@@H](C(=O)O)NC(=O)[C@H]([C@@H](C)O)NC(=O)CNC(=O)[C@@H]2CSSC[C@@H]3NC(=O)[C@H](CCC(N)=O)NC(=O)[C@H](Cc4ccccc4)NC(=O)[C@H](C)NC(=O)[C@H]([C@@H](C)O)NC(=O)[C@H](CSSC[C@H](NC(=O)[C@H](Cc4ccccc4)NC(=O)[C@H](CO)NC(=O)[C@H](CC(C)C)NC(=O)[C@H](CCCNC(=N)N)NC(=O)[C@H](Cc4ccc(O)cc4)NC(=O)[C@H](CCCCN)NC(=O)[C@H](CCSC)NC(=O)[C@H](CO)NC(=O)[C@H](Cc4cnc[nH]4)NC(=O)[C@H](CCCCN)NC3=O)C(=O)N[C@@H](CCCNC(=N)N)C(=O)N[C@@H](CCCCN)C(=O)N[C@@H]([C@@H](C)O)C(=O)N2)NC(=O)[C@H](CCCNC(=N)N)NC(=O)[C@H](CO)NC(=O)[C@H](CCCCN)NC(=O)[C@@H]2CCCN2C(=O)[C@H]([C@@H](C)CC)NC(=O)[C@H]([C@@H](C)O)NC(=O)[C@H](CC(=O)O)NC1=O` came in with a half-life in data set [1] of 20 min.
Consider `CC[C@H](C)[C@@H]1NC(=O)[C@@H](NC(=O)[C@H](CO)NC(=O)[C@@H](N)CCCNC(=N)N)CSSC[C@@H](C(=O)O)NC(=O)[C@H]([C@@H](C)O)NC(=O)CNC(=O)[C@@H]2CSSC[C@@H]3NC(=O)[C@H](CCC(N)=O)NC(=O)[C@H](Cc4ccccc4)NC(=O)[C@H](Cc4cccc5ccccc45)NC(=O)[C@H]([C@@H](C)O)NC(=O)[C@H](CSSC[C@H](NC(=O)[C@H](Cc4ccccc4)NC(=O)[C@H](CO)NC(=O)[C@H](CC(C)C)NC(=O)[C@H](CCCNC(=N)N)NC(=O)[C@H](Cc4ccc(O)cc4)NC(=O)[C@H](CCCCN)NC(=O)[C@H](CCSC)NC(=O)[C@H](CO)NC(=O)[C@H](Cc4cnc[nH]4)NC(=O)[C@H](CCCCN)NC3=O)C(=O)N[C@@H](CCCNC(=N)N)C(=O)N[C@@H](CCCCN)C(=O)N[C@@H]([C@@H](C)O)C(=O)N2)NC(=O)[C@H](CCCNC(=N)N)NC(=O)[C@H](CO)NC(=O)[C@H](CCCCN)NC(=O)[C@@H]2CCCN2C(=O)[C@H]([C@@H](C)CC)NC(=O)[C@H]([C@@H](C)O)NC(=O)[C@H](Cc2cccc3ccccc23)NC1=O` (H-RSCI[1Nal]TIPKSRCT[1Nal]FQCKHSMKYRLSFCRKTCGTC-OH; disulfide 3-35, 12-28, 17-32), for which the IC50 in data set [2] amounted to 0.039 nM; in data set [3] it was 0.089 nM; in data set [4], 0.11 nM.
